Patent US6166290A, “Glutathione-S-conjugate transport in plants” (The Trustees of the University of Pennsylvania, priority 1997, dated 2000)
Values joined by “and” are separate entries in the source; they are usually repeats but may differ in a detail not shown here. Equal values may be shown once.

How the values were obtained:
[1] = target: T1, YCF1 (vacuolar membrane vesicles purified from DTY165 cells) (Saccharomyces cerevisiae, UniProt P39109); assay: [3H]DNP-GS uptake by vacuolar membrane vesicles purified from DTY165 cells; assay type: biochemical
T1 construct: endogenous in cells; host or cells: S. cerevisiae DTY165 (wild type YCF1), vacuolar membrane vesicles
T1 sequence (P39109 whole entry): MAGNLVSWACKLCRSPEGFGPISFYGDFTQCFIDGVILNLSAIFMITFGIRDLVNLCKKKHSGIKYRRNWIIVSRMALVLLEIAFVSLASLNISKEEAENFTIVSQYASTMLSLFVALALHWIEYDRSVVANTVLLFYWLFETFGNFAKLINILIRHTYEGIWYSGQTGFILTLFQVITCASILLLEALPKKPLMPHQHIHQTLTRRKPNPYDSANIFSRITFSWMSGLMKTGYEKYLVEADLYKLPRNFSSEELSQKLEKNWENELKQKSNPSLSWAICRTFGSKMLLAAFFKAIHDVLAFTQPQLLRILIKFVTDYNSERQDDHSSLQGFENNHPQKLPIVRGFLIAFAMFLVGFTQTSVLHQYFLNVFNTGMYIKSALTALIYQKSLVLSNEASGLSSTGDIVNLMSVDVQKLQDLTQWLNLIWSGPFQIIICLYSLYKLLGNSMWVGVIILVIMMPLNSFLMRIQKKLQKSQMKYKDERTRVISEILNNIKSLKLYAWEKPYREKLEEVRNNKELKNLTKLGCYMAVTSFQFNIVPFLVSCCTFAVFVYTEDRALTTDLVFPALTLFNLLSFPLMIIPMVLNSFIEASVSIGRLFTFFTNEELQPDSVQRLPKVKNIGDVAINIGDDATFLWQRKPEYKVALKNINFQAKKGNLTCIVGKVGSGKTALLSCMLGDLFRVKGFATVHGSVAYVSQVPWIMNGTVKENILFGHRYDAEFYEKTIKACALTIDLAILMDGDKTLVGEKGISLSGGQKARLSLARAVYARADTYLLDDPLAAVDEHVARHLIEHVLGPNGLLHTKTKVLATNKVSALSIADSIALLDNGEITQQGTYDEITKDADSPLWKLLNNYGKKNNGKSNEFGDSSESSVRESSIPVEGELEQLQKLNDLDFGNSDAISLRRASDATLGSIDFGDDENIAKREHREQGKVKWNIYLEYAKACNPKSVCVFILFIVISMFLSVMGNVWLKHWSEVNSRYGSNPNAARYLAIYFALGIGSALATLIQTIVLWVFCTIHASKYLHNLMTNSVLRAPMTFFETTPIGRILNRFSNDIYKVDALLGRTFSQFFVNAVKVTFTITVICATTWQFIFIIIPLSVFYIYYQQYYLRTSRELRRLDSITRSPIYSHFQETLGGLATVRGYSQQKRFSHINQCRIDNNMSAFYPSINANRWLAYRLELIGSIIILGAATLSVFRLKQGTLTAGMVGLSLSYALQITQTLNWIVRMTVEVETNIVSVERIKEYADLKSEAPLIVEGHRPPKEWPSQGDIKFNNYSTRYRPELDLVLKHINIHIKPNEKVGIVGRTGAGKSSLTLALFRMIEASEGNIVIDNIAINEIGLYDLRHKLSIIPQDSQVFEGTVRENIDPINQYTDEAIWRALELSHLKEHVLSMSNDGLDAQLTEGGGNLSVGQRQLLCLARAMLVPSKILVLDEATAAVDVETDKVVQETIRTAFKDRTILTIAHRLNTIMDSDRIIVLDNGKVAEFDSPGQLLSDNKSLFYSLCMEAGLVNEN
Procedure, shortened: (§1)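 ATP-dependent [3H]DNP-GS (66.2 μM) transport measured by filtration and scintillation counting of Ficoll-purified yeast vacuolar vesicles (DTY165 wild type; DTY167 ycf1Δ), 1–60 min at 25 °C in sorbitol/Tris-Mes pH 8.0 with 3 mM ATP, 3 mM MgSO4 and gramicidin-D. Nonenergized uptake without ATP/Mg2+.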

[2] = test system: vacuolar membrane vesicles purified from DTY167 cells (ycf1Δ mutant); assay type: biochemical, Saccharomyces cerevisiae; settings: 5 μM gramicidin D, GSH, GSSG 1 mM, GS-conjugates 100 μM
Procedure, shortened: as §1

DTY167 cells = assay: Fluorescence microscopy of vacuolar bimane-GS accumulation, DTY167 cells; assay type: cell-based, Saccharomyces cerevisiae; settings: 100 μM monochlorobimane, 6 hours
Method: (§2) Cells were grown in YPD medium for 24 hours at 30° C. to an OD600 nm of approximately 1.4, and 100 μl aliquots of the suspensions were transferred to 15 ml volumes of fresh YPD medium containing 100 μM syn-(ClCH2,CH3)-1,5-diazabicyclo-[3.3.0]-[…] (monochlorobimane) (Kosower et al., 1980, J Am. Chem. Soc. 102:4983-4993). After incubation for 6 hours, the cells were pelleted by centrifugation, washed twice with YPD medium lacking monochlorobimane, and viewed without fixation under an Olympus BH-2 fluorescence microscope equipped with a BP-490 UV excitation filter, AFC-0515 barrier filter, and Nomarski optics attachment.

[3] = test system: vacuolar membrane vesicles purified from DTY167 cells (ycf1Δ mutant); assay type: biochemical, Saccharomyces cerevisiae
Method: In experiments involving cadmium transport, dithiothreitol and EGTA were removed from the suspension medium to prevent the attenuation of YCF1-dependent Cd^2+ transport otherwise exerted by these compounds. Vesiculated vacuolar membranes were subjected to three cycles of 50-fold dilution into simplified suspension medium (1.1 M glycerol, 5 mM Tris-Mes, pH 8.0), centrifugation at 100,000× g for 35 minutes and resuspension in the same medium before use.
Singly radiolabeled ^109 Cd.GSn and doubly radio-labeled ^109 Cd[^3 H].GS^n complexes were prepared by sequential gel-filtrationand anion-exchange chromatography of the reaction products generated by incubating 20 mM ^109 CdSO4 (78.4 mCi/mmol) with 40 mM GSH or 40 mM [^3 H]GSH (240 mCi/mmol) in 15 ml 10 mM phosphate buffer (pH 8.0) containing 150 mM KNO3 at 45° C. for 24 hours. For gel-filtration, 2 ml aliquots of the reaction mixture were applied to a column (40×1.5 cm ID) packed with water-equilibrated Sephadex G-1 5, eluted with deionized water and ^109 Cd and/or ^3 H in the fractions was measured by liquid scintillation counting. The fractions encompassed by each of the two ^109 Cd.GSn peaks identified were pooled, lyophilized and redissolved in 4 ml of loading buffer (5 mM Tris-Mes, pH 8.0). For anion-exchange chromatography, 0.5 ml aliquots of the resuspended lyophilizates from gel-filtration chromatography were applied to a Mono-Q HR5/5 column (Pharmacia) equilibrated with the same buffer. Elution was with a linear gradient of NaCl (0.5 ml/minute; 0-500 mM) dissolved in loading buffer. The individual fractions corresponding to the major peaks of ^109 Cd obtained from the Mono-Q column (one each for the peaks resolved by gel-filtration chromatography) were pooled, lyophilized and resuspended in 4 ml deionized water after liquid scintillation counting.
MgATP-energized, uncoupler-insensitive ^109 Cd^2+ uptake by vacuolar membrane vesicles was measured at 25° C. in 200 μl reaction volumes containing 3 mM ATP, 3 mM MgSO4, 5 μM gramicidin-D, 10 mM creatine phosphate, 16 units/ml creatine kinase, 50 mM KCl, 400 mM sorbitol, 25 mM Tris-Mes (pH 8.0) and the indicated concentrations of ^109 CdSO4, GSH or ^109 Cd- and/or ^3 H-labeled purified Cd.GSn complexes as described herein except that the wash media contained 100 μM CdSO4 in addition to sorbitol (400 mM) and Tris-Mes (3 mM, pH 8.0).

[4] = target: T1, YCF1 (vacuolar membrane vesicles purified from DTY165 cells); assay: biochemical; assay type: biochemical
Procedure, shortened: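 Vacuolar vesicles from wild-type (DTY165) or ycf1Δ (DTY167) yeast, washed free of DTT/EGTA into glycerol/Tris-Mes pH 8.0. MgATP-energized, uncoupler-insensitive uptake of 109Cd2+, GSH or purified radiolabeled Cd·GSn complexes measured at 25°C. Medium: 3 mM ATP/MgSO4, ATP-regenerating system, 5 μM gramicidin-D, Tris-Mes pH 8.0; washes contained 100 μM CdSO4.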

YCF1-specific mRNA = settings: 24 hour pretreatment; CdSO4 200 μM, CDNB 150 μM
DTY165 cells = assay: Fluorescence microscopy of vacuolar bimane-GS accumulation, DTY165 cells; assay type: cell-based, Saccharomyces cerevisiae; settings: 100 μM monochlorobimane, 6 hours
Method: as §2

[5] = substrate: N[C@@H](CCC(=O)N[C@@H](CSSC[C@H](NC(=O)CC[C@H](N)C(=O)O)C(=O)NCC(=O)O)C(=O)NCC(=O)O)C(=O)O; assay: cells, lysate or membranes; settings: other: MgATP-dependent, uncoupler-insensitive; pH 8.0
[6] = substrate: N[C@@H](CCC(=O)N[C@@H](CSc1ccc([N+](=O)[O-])cc1[N+](=O)[O-])C(=O)NCC(=O)O)C(=O)O; assay: AtMRP1-dependent uptake by membrane vesicles from pYES3-AtMRP1-transformed DTY168 cells; assay type: biochemical, Arabidopsis thaliana; settings: other: MgATP-dependent, uncoupler-insensitive; pH 8.0
[7] = 80 μM 109CdSO4, compound 1 mM, 5 μM gramicidin-D
[8] = 3 mM MgATP, 80 μM 109CdSO4, compound 1 mM, 5 μM gramicidin-D

Cc1c(C)n2c(CSC[C@H](NC(=O)CC[C@H](N)C(=O)O)C(=O)NCC(=O)O)c(C)c(=O)n2c1=O [Bimane-GS]
MgATP-dependent, uncoupler-insensitive DNP-GS uptake plus compound ([1]; 5 μM gramicidin D, GSH, GSSG 1 mM, GS-conjugates 100 μM): 25.2 ± 1.1 nmol/mg/10 minutes | MgATP-dependent, uncoupler-insensitive DNP-GS uptake as percentage of control ([1]; 5 μM gramicidin D, GSH, GSSG 1 mM, GS-conjugates 100 μM, 10 min): 52.6% | inhibition at 100 µM ([1]; 100 μM compound): ~50% | MgATP-dependent, uncoupler-insensitive DNP-GS uptake plus compound [2]: 4.5 ± 0.4 nmol/mg/10 minutes | MgATP-dependent, uncoupler-insensitive DNP-GS uptake as percentage of control ([2]; 10 min): 69.2% | vacuolar fluorescence (bimane-GS) (DTY167 cells): severely attenuated

[Cd+2] [Cd^2+]
109Cd uptake, -MgATP [3, 7]: 4.3 ± 1.3 nmol/mg/10 minutes | MgATP-dependent, uncoupler-insensitive 109Cd2+ uptake rate ([3]; 80 μM Cd2+, 1 mM GSH): 0.8 nmol/mg/min | 109Cd uptake, +MgATP [3, 8]: 4.6 ± 2.1 nmol/mg/10 minutes | increase of [3H]DNP-GS uptake into vesicles from pretreated cells ([1]; 24 hour pretreatment, CdSO4 200 μM, CDNB 150 μM, 66.2 μM DNP-GS): 1.6 fold | 109Cd uptake, -MgATP [4, 7]: 5.8 ± 2.4 nmol/mg/10 minutes | MgATP-dependent, uncoupler-insensitive 109Cd2+ uptake rate ([4]; 80 μM Cd2+, 1 mM GSH): 4.5 nmol/mg/min | 109Cd uptake, +MgATP [4, 8]: 5.6 ± 1.5 nmol/mg/10 minutes | increase of 109Cd.GS2 uptake into vesicles from pretreated cells ([4]; 24 hour pretreatment, CdSO4 200 μM, CDNB 150 μM, 50 μM Cd.GS2): 1.4 fold | increase of YCF1-specific mRNA level (YCF1-specific mRNA): 1.9 fold

Cc1c(C)n2c(CCl)c(C)c(=O)n2c1=O [monochlorobimane, syn-(ClCH2,CH3)-1,5-diazabicyclo-[3.3.0]-octa-3,6-dione-2,8-dione]
vacuolar fluorescence (bimane-GS) (DTY165 cells): intense punctate fluorescence

B1: AtMRP1 (Arabidopsis thaliana) (protein)
chain: MGFEPLDWYCKPVPNGVWTKTVDYAFGAYTPCAIDSFVLGISHLVLLILCLYRLWLITKDHKVDKFCLRSKWFSYFLALLAAYATAEPLFRLVMRISVLDLDGAGFPPYEAFMLVLEAFAWGSALVMTVVETKTYIHELRWYVRFAVIYALVGDMVLLNLVLSVKEYYGSFKLYLYISEVAVQVAFGTLLFVYFPNLDPYPGYTPVGTENSEDYEYEELPGGENICPERHANLFDSIFFSWLNPLMTLGSKRPLTEKDVWHLDTWDKTETLMRSFQKSWDKELEKPKPWLLRALNNSLGGRFWWGGFWKIGNDCSQFVGPLLLNELLKSMQLNEPAWIGYIYAISIFVGVVLGVLCEAQYFQNVMRVGYRLRSALIAAVFRKSLRLTNEGRKKFQTGKITNLMTTDAESLQQICQSLHTMWSAPFRIIVALVLLYQQLGVASIIGALFLVLMFPIQTVIISKTQKLTKEGLQRTDKRIGLMNEVLAAMDTVKCYAWENSFQSKVQTVRDDELSWFRKAQLLSAFNMFILNSIPVLVTVVSFGVFSLLGGDLTPARAFTSLSLFSVLRFPLFMLPNIITQMVNANVSLNRLEEVLSTEERVLLPNPPIEPGQPAISIRNGYFSWDSKADRPTLSNINLDIPLGSLVAVVGSTGEGKTSLISAMLGELPARSDATVTLRGSVAYVPQVSWIFNATVRDNILFGAPFDQEKYERVIDVTALQHDLELLPGGDLTEIGERGVNISGGQKQRVSMARAVYSNSDVCILDDPLSALDAHVGQQVFEKCIKRELGQTTRVLVTNQLHFLSQVDKILLVHEGTVKEEGTYEELCHSGPLFQRLMENAGKVEDYSEENGEAEVDQTSVKPVENGNANNLQKDGIETKNSKEGNSVLVKREERETGVVSWKVLERYQNALGGAWVVMMLVICYVLTQVFRVSSSTWLSEWTDSGTPKTHGPLFYNIVYALLSFGQVSVTLINSYWLIMSSLYAAKKMHDAMLGSILRAPMVFFQTNPLGRIINRFAKDMGDIDRTVAVFVNMFMGSIAQLLSTVILIGIVSTLSLWAIMPLLVVFYGAYLYYQNTSREIKRMDSTTRSPVYAQFGEALNGLSSIRAYKAYDRMAEINGRSMDNNIRFTLVNMAANRWLGIRLEVLGGLMVWLTASLAVMQNGKAANQQAYASTMGLLLSYALSITSSLTAVLRLASLAENSLNSVERVGNYIEIPSEAPLVIENNRPPPGWPSSGSIKFEDVVLRYRPELPPVLHGVSFLISPMDKVGIVGRTGAGKSSLLNALFRIVELEKGRILIDECDIGRFGLMDLRKVLGIIPQAPVLFSGTVRFNLDPFSEHNDADLWESLERAHLKDTIRRNPLGLDAEVTEAGENFSVGQRQLLSLARALLRRSKILVLDEATAAVDVRTDVLIQKTIREEFKSCTMLIIAHRLNTIIDCDKVLVLDSGKVQEFSSPENLLSNGESSFSKMVQSTGTANAEYLRSITLENKRTREANGDDSQPLEGQRKWQASSRWAAAAQFALAVSLTSSHNDLQSLEIEDDNSILKKTKDAVVTLRSVLEGKHDKEIEDSLNQSDISRERWWPSLYKMVEGLAVMSRLARNRMQHPDYNLEGKSFDWDNVEM
notes: S. cerevisiae DTY168 (ycf1 null) vacuolar-enriched membrane vesicles
Km [5]: 219 µM | Km [6]: 48.7 ± 15.4 µM and 73.8 µM and 49.7 ± 15.4 µM
